According to US9533019B1, “Calotropis procera extracts as anti-ulcerative colitis agents” (KING SAUD UNIVERSITY, priority 2016, dated 2017):
Marks after values point to notes of the source that are not given here.

System: acetic acid-induced colitis in male Wistar rats
Assay: Acetic acid-induced ulcerative colitis
Type: in vivo
Method: Male Wistar rats were divided into 9 experimental groups, each of 6 animals. Rats of groups 1 and 2 received the vehicle (5 mL/kg) and served as normal control and control colitis groups, and Group 3 was administered dexamethasone (0.1 mg/kg) and served as Reference Drug group. […] All medications were administered orally, once daily for 5 consecutive days after colitis induction. The first doses were administrated in all groups one hour after colitis induction. The colonic lesions were assessed by weighing the colon specimens and the wet weight/length ratio was calculated for all the rats. The specimens were examined under a dissecting microscope and the lesion scores were quantified by scoring system (0-5). Ulcer area was measured using a plane glass square. Each cell on the glass square was 1 mm^2 in area, and the number of cells was counted and the ulcer area was determined for each colon.
The Ulcer index (UI) was measured by summing the lesion score and the ulcer area for each colon specimen. The curative ratio was determined according to formula (1) below: […]
The inflammatory changes of the intestinal tract were associated with a significant increase of wet weight/length of the colon specimens as an indicator of inflammation. […] The colitis was induced by slowly infusion of 2 mL (4%, v/v) acetic acid in saline into the colon through the catheter.

[1] = 50 mg/kg orally once daily for 5 days after colitis induction, n=6

C[C@]12C=CC(=O)C=C1CC[C@@H]1[C@@H]2[C@@H](O)C[C@@]2(C)[C@H]1CC[C@]2(O)C(=O)CO [Prednisolone]
percent protection of control colitis (50 mg/kg orally for 5 days): 54.9% | Lesion score (0-5) [1]: 2.22 ± 0.12 | Ulcer area [1]: 2.53 ± 0.15* cm^2 | Ulcer index [1]: 4.65 ± 0.27 | Wet W/L (colon wet weight/length, 50 mg/kg orally once daily for 5 days after colitis induction, n=6): 0.46 ± 0.02 g/cm
